Laboratory results reported in patent US20230358751A1, “METHODS FOR THE DETECTION AND TREATMENT OF PROSTATE CANCER” (Board of Regents, The University of Texas System, priority 2020, published 2023).
Where two headings read alike, the source gives them in different places.

Experiments:
[1] = test system: PC-3M prostate cancer cells
Procedure: (§1) Horizontal axis=log(M); vertical axis=% viability relative to control. […] (i) vehicle (ii) 128 μM Eliglustat (iii) 64 μM PDMP (iv) 64 μM PPMP. Statistical significance was determined by 2-sided student t-test comparing the aggregate intensities of individual lipid species corresponding to the respective lipid domain.
(§2) To test this hypothesis, the efficacy of PDMP, PPMP and eliglustat three different inhibitors of glucosylceramide synthase (also known as UGCG; UDP-glucose:ceramide glucosyltransferase), a rate-limiting enzyme in glycosphingolipid metabolism, for reducing viability of RM-9 and PC-3M prostate cancer cells in vitro was then evaluated.

[2] = test system: RM-9 prostate cancer cells
Procedure: as §1, §2

[3] = test system: PC-3M prostate cancer cells; assay: Lipidome alterations after short-term pharmacological inhibition of UGCG in PC-3M cells; assay type: cell-based, human; conditions: 6 hr, 128 μM Eliglustat, 64 μM PDMP, 64 μM PPMP
From the text: (§3) FIGS. 16A, 16B, and 16C show (16A) the induction of autophagy/mitophagy by exposure of PC-3M prostate cancer cells to Eliglustat. (i) cytotoxicity (ii) apoptosis at 4 hrs (iii) apoptosis at 24 hrs. N=3 biologically independent replicates per experimental condition. Values represent log(relative fluorescence units)±StDev. Also shown are volcano plots illustrating differences in annotated lipid species stratified by lipid domains in (16B) PC-3M and (16C) RM-9 prostate cancer cells following 6 hr challenge with 128 μM Eliglustat. (i) acylcarnitines (ii) cardiolipins (iii) diacylglycerols (iv) ether lysophospholipids (v) ether phospholipids (vi) lysophospholipids (vii) phospholipids (viii) cholesterol esters (ix) triacylglycerols (x) sphingomyelins. N=3 biologically independent replicates per experimental condition.
(§4) Sample Extraction Following transfections, cell lysates were washed 2× with pre-chilled 0.9% NaCl followed by addition of 2.5 mL of pre-chilled 3:1 isopropanol:ultrapure water. Cells were scraped using a 25 cm Cell Scraper (Sarstedt) in extraction solvent and transferred to a 15 mL conical tube (Eppendorf). Samples were briefly vortexed followed by centrifugation at 4° C. for 10 min at 2,000×g. Thereafter, 1.2 mL of metabolite extracts were transferred to 1.5 mL Eppendorf tubes and stored in −20° C. until metabolomic analysis.
(§5) Complex Lipids Pre-aliquoted EDTA plasma samples (10 μL) were extracted with 30 μL of LCMS grade 2-propanol (ThermoFisher) in a 96-well microplate (Eppendorf). Plates were heat sealed, vortexed for 5 min at 750 rpm, and centrifuged at 2000×g for 10 minutes at room temperature. The supernatant (10 μL) was carefully transferred to a 96-well plate, leaving behind the precipitated protein. The supernatant was further diluted with 90 μL of 1:3:2 100 mM ammonium formate, pH 3 (ThermoFisher): acetonitrile: 2-propanol and transferred to a 384-well microplate (Eppendorf) for lipids analysis using LCMS. […]

[4] = test system: RM-9 prostate cancer cells; assay: Lipidome alterations after short-term pharmacological inhibition of UGCG in RM-9 cells; assay type: cell-based, mouse; conditions: 6 hr, 128 μM Eliglustat, 64 μM PDMP, 64 μM PPMP
From the text: as §3, §4, §5

[5] = test system: RM-9 tumors; assay: RM-9-luciferase subcutaneous tumor model in C57BL/6N mice; assay type: in vivo, mouse
Procedure: FIGS. 19A, 19B, 19C, and 19D show the efficacy of eliglustat in an in vivo mouse model. (19A) Relative fluorescence units±SEM of RM-9 tumors following daily intraperitoneal injection with either (i) saline (n=23) or (ii) eliglustat (60 mg/kg) (n=9). (19B) Tumor Volume±SEM following treatment with either saline (n=15) or eliglustat (60 mg/kg) (n=8). Statistical significance was determined by 2-sided Wilcoxon-rank sum test. (19C) Representative IVIS images following treatment. (19D) Relative abundance (area units±StDev) of glycosphinoglipids in RM-9 tumors following treatment.
FIGS. 20A, 20B, 20C, 20D, 20E, and 20F show quantitative analyses derived from immunohistochemistry staining for (20A) Cav-1, (20B) BrdU-TUNEL, (20C) PCNA, (20D) HMGB1 and (20E) LC3B in RM-9 tumors following treatment with either saline (n=6-8 mice) or eliglustat (n=7 mice). Vertical axes are (20A) Cav-1 staining score, (20B) apoptotic bodies/fd, (20C) % of PCNA labeling, (20D) % of cytoplasmic HMGB1, and (20E) LC-3B positive cells/fd. Statistical significance was determined by 2-sided Wilcoxon rank sum test. Also shown is (20F) volcano plot illustrating fold change in individual annotated lipid species stratified by lipid domain in plasma of RM-9 bearing C57BL/6N mice or control mice. (i) acylcarnitines (ii) ceramides (iii) cholesterol esters (iv) diacylglycerols (v) free fatty acids (vi) glycosphingolipids (vii) lysophospholipids (viii) oxylipins (ix) phospholipids (x) sphingomyelins (x) triacylglycerols.
Inhibition of tumor growth by eliglustat was next examined. RM-9 cells harbor driver oncogenic RAS and MYC genes which model RAS-MAPK pathway activation and MYC-driven transcriptional activities which are associated with aggressive primary prostate cancer. RM-9-luciferase cells were subcutaneously implanted into C57BL/6N mice. RM-9 tumor growth was suppressed by eliglustat (FIGS. 19A, 19B, and 19C). […] In addition, plasma Cav-1 levels tended to be elevated in RM-9 tumor-bearing mice compared to control mice.

[6] = test system: LNCaP cells; assay: Viability (MTS assay) of LNCaP cells treated with eliglustat following Cav-1 overexpression; assay type: cell-based, human; conditions: 64 μM eliglustat
Procedure: (§6) FIGS. 18A and 18B show (18A) the viability (MTS assay) of PC-3M cells treated with 128 μM eliglustat after (left) knockdown of CAV1: or (right) following pre-treatment with Cav-1 monoclonal blocking antibody: (i) siCtrl (ii) siCAV1-1 (iii) siCAV1-2 (iv) IgG=vehicle (v) IgG+Eliglustat (vi) abCAV1+Vehicle (vii) abCAV1+Eliglustat. (18B) Viability (MTS assay) of LNCaP cells treated with 64 μM eliglustat following Cav-1 overexpression.

[7] = test system: PC-3M cells; assay: Mitophagy markers and mitochondrial morphology in PC-3M cells treated with eliglustat; assay type: cell-based, human
Procedure: FIGS. 17A, 17B, 17C, and 17D show representative confocal microscopy images for PC-3M cells following 24 hr pre-transfection with (i) CellLight Mitochondria-RFP (leader sequence of E1 alpha pyruvate dehydrogenase) or (ii) CellLight Lysosome-GFP (lysosomal associated 1052 membrane protein 1) followed by acute (6 hr) treatment with either (17A) vehicle or (17C) Eliglustat (128 μM). (17B) and (17D) correspond to enlargements of features from (17A) and (17C), respectively. (iii) merged images.

[8] = test system: PC-3M prostate cancer cells; assay: Cytotoxicity and apoptosis of PC-3M cells exposed to eliglustat; assay type: cell-based
Procedure: as §2

[9] = test system: PC-3M cells; assay: Viability (MTS assay) of PC-3M cells treated with eliglustat after CAV1 knockdown or Cav-1 blocking antibody; assay type: cell-based, human; conditions: 128 μM eliglustat
Procedure: as §6

[10] = immunohistochemistry, RM-9 tumors

SMILES	cytotoxicity (viability relative to control) [1]	cytotoxicity (viability relative to control) [2]	alterations in the lipidome [3]	alterations in the lipidome [4]	RM-9 tumor growth ([5]; C57BL/6N mice, 60 mg/kg daily intraperitoneal injection)	glycosphingolipids in RM-9 tumor tissue ([5]; C57BL/6N mice, 60 mg/kg, metabolomics of tumor tissue)	BrdU-TUNEL staining in tumor tissue [5, 10]	Cav-1 staining in tumor tissue [5, 10]	HMGB1 staining in tumor tissue [5, 10]	LC3B staining in tumor tissue [5, 10]	PCNA staining in tumor tissue [5, 10]	anti-cancer effect (viability, MTS) following Cav-1 overexpression [6]	cytotoxicity (viability relative to control) ([1]; PC-3M cells, 48 hour treatment)	cytotoxicity (viability relative to control) ([2]; RM-9 cells, 48 hour treatment)	protein expression of mitophagy-associated marker LC3B-II [7]	protein expression of Parkin and PINK1 ([7]; acute (6 hr) treatment)	mitochondrial morphology ([7]; acute (6 hr) treatment, 128 μM)	mechanism of acute cytotoxic effects (cytotoxicity, apoptosis at 4 hrs and 24 hrs) [8]	sensitivity to eliglustat (viability, MTS) after knockdown of CAV1 [9]
CCCCCCCCCC(=O)NC(CN1CCOCC1)C(O)c1ccccc1 (stereo not shown) [PDMP, 1-phenyl-2-decanoylamino-3-morpholino-1-propanol]	dose-dependent cytotoxicity	dose-dependent cytotoxicity	accumulation of intracellular ceramides, acylcarnitines, lysophospholipids and diacylglycerols and reductions in glycosphingolipids, phospholipids and triacylglycerols	accumulation of intracellular ceramides, acylcarnitines, lysophospholipids and diacylglycerols and reductions in glycosphingolipids, phospholipids and triacylglycerols															
CCCCCCCCCCCCCCCC(=O)N[C@H](CN1CCOCC1)[C@H](O)c1ccccc1 [PPMP, D-threo-1-phenyl-2-hexadecanoylamino-3-morpholino-1-propanol]	dose-dependent cytotoxicity	dose-dependent cytotoxicity	accumulation of intracellular ceramides, acylcarnitines, lysophospholipids and diacylglycerols and reductions in glycosphingolipids, phospholipids and triacylglycerols	accumulation of intracellular ceramides, acylcarnitines, lysophospholipids and diacylglycerols and reductions in glycosphingolipids, phospholipids and triacylglycerols															
CCCCCCCC(=O)N[C@H](CN1CCCC1)[C@H](O)c1ccc2c(c1)OCCO2 [eliglustat]			accumulation of intracellular ceramides, acylcarnitines, lysophospholipids and diacylglycerols and reductions in glycosphingolipids, phospholipids and triacylglycerols	accumulation of intracellular ceramides, acylcarnitines, lysophospholipids and diacylglycerols and reductions in glycosphingolipids, phospholipids and triacylglycerols	suppressed	reductions in glycosphingolipids	statistically significantly increased	statistically significantly reduced	statistically significantly increased	statistically significantly increased	statistically significantly reduced	reduced the anti-cancer effects	dose-dependent cytotoxicity	dose-dependent cytotoxicity	increased	increased	loss of the branched, fused-like-mitochondrial architecture and accumulation of punctate mitochondria co-localized with the lysosome	non-apoptotic mechanism	further sensitized
